The values below come from patent US12053480B2, “Methods and pharmaceutical compositions for treating peripheral demyelinating diseases” (INSERM (INSTITUT NATIONAL DE LA SANTE ET DE LA RECHERCHE …, priority 2015, dated 2024).

Assay [1] deals with diabetic (db/db) mice. The assay can be described thus: Electrophysiology (CMAP, NCV) in diabetic mice. It counts as in vivo, mouse. The following applies: after 30 days of treatment. The method, then: (§1) Standard electroneurography was performed before, during and after TRO 19622 drug treatment on CMT1A rats and diabetic mice that were anesthetized with 3% isoflurane. A pair of steel needle electrodes (AD Instruments, MLA1302, Oxford, UK) was placed subcutaneously along the nerve at sciatic notch (proximal stimulation). A second pair of electrodes was placed along the tibial nerve above the ankle (distal stimulation). Supramaximal square wave pulses lasting 10 ms and 1 mA for mice and 3.6 mA for rats were delivered using a PowerLab 26T (AD Instruments, Oxford, UK). Compound muscle action potential (CMAP) was recorded from the intrinsic foot muscles using steel electrodes. Both amplitudes and latencies of CMAP were determined. The distance between the two sites of stimulation was measured alongside the skin surface with fully extended legs, and nerve conduction velocities (NCVs) were calculated automatically from sciatic nerve latency measurements (for further details Fledrich et al., 2014^10).
As previously reported^37, 38, we observed a reduction of the nerve conduction velocity in db/db diabetic mice with no change in the amplitude of the compound of action potentials (CMAP).

The test system of assay [2] is diabetic (db/db) mice. Description: Behavioral tests (rotarod, grip, CatWalk) in diabetic mice. It is filed as in vivo, mouse. As for the experimental part:
[…] Mice and rats were first given a pretraining trial of two days to familiarize them with the rotating rod. For control and diabetic mice latency to fall was measured at fixed speed 10 rpm over a 180 s time as a cut-off. No acceleration testing was performed for mice. For control and CMT1A rats latency to fall and maximum rpm (revolutions per minute) were measured at accelerated speed. […] Each animal underwent three trials a day. For each day, data were averaged for each animal (values from the three trials), normalized according to animal weight and then averaged for each treated group.
[…] The runs were analyzed when the speed of crossing was constant and homogenous. At least three compliant runs were analyzed for each animal Data were averaged per animal, normalized according to animal weight and then per treated group. The resulting data provided quantitative parameters and qualitative walking patterns.
Neuromuscular strength of diabetic mice and CMT rats was assessed in standardized grip strength tests for front, hind and all limbs. All limbs grip strength was measured by rat supporting on the metal grid and pulling the animal's tail toward a horizontal grid connected to a gauge. Front and hind limb grip strength were measured by supporting the forelimbs or hindlimbs respectively and pulling the animal's tail toward a horizontal T-bar connected to a gauge. The maximum force (measured in newtons) exerted onto the T-bar or grid before the animals lost grip was recorded, and the mean of 3 repeated measurements was calculated. All data were normalized according to animal weight.
Finally, although the obesity of db/db diabetic mice hinders functional motor tests, we evaluated their neuromuscular performances during drug treatment using rotarod, grip and Catwalk tests. […] Rotarod and grip strength recoveries were not due to a reduced weight as no change in mice weight was observed during treatment.

A further assay concerns CMT1A rats. The assay can be described thus: Electrophysiology (CMAP, NCV) in CMT1A rats. It counts as in vivo, rat. The conditions noted are these: CMT1A rats treated daily for one month. As for the experimental part: as §1
For a further assay, the system named is mSC mitochondria. The assay can be described thus: Mitochondrial motility imaging (mito-dsRed2) in mSC of mouse sciatic nerve. It is filed as in vivo. The conditions noted are these: after nerve crush. The method, then:
(§2) Mice were anesthetized with isoflurane inhalation and placed under a Stemi2000 microscope (Zeiss). Incision area was shaved and cleaned using betadine solution. After incision, the gluteus superficialis and biceps femoris muscles were separated to reveal the cavity traversed by the sciatic nerve. The nerve was lift out using spatula and a thin glass needle filled with viral solution (8 μl) was introduced into the nerve with a micromanipulator. This solution was injected over 30 min with short pressure pulses using a Picospritzer III (Parker Hannifin) coupled to a pulse generator. After injection, the nerve was replaced into the cavity, the muscles were readjusted, and the wound was closed using clips (for further details see Gonzalez et al., 2014^3).
(§3) TRO19622 drug (Tocris bioscience, Ref. 2906) was diluted in ethanol to 20 mM and then, the solution was diluted in sterile PBS to 20 μM. TRO19622 treatments were realized by 3 mg/kg intraperitoneal (IP) injections of 20 mM solution or by intra sciatic nerve injections of 2 μl of drug solution 2 μM using a Hamilton syringe or a glass needle in sterile conditions 30 minutes before multiphoton image acquisitions or immunohistochemistry and demyelination studies respectively. Methyl jasmonate drug (Sigma-Aldrich, Ref. 392707) was diluted in 1 ml of sterile PBS to 1M or 3M. Methyl jasmonate treatments were realized by intra sciatic nerve injections of 1 μl of drug solution using a glass needle and micromanipulator in sterile conditions following the same virus injections procedure (see in vivo virus injection in the sciatic nerve method) two hours before multiphoton image acquisition. […] All drug concentrations were previously evaluated by Bordet et al, 2007^5; Goldin et al, 2008^6; Sharov et al, 2007^7.
(§4) First injected mouse was anesthetized with 5% of isoflurane a 1.5% of oxygen into the anesthesia system box (World Precision Instruments, Ref. EZ-B800) for 5 minutes. Anesthesia controls were realized^8. Then, mouse was placed in anesthesia mask and the incision area was shaved and cleaned with betadine and ethanol 70% solution. Incision was realized using a scalpel and the skin was retracted using forceps in order to expose the gluteus superficialis and bleeps femoris muscles. Next, the connective tissue that connects both muscles was cut and the sciatic nerve was gently lifted out using a spatula. A flexible bridge was slide below sciatic nerve and it was placed into a plastic first pool fixed to the bridge. Mouse was placed under the multiphoton microscope, the bridge was fixed using magnetic brackets to avoid physiological movement and mouse legs were fixed using clippers. Microscope dark box temperature is controlled to 37° C. during all time-lapse imaging. Finally, a second pool was fixed to the first pool using a drop of agarose low melting 3% (Promega, Ref. V2111) in Leibovitz's L15 medium (Gibco Life Technologies) and filled with deionized water to immerse the objectives 20× or 63× (Carl Zeiss Microscopy).
All time-lapse images were obtained with a multiphoton microscope Zeiss LSM 7 MP OPO. Mitochondria motility images were acquired by time-lapse recording of one image every five minutes during five hours at 920 nm. GCaMP2 and SypHer probe images were acquired by time-lapse recording of one image every fifteen minutes during five hours at 985 nm. Images were acquired to constant 1% of laser intensity to 100 msec of acquisition time with 512×512 resolution and 10 images of z-stack of 20 μm. […]

A further assay has as its target T1, VDAC1 (Mus musculus, UniProt Q60932).
T1 construct: strongly expressed in mSC mitochondria; from tissue; host or cells: myelinating Schwann cells (mSC) of the sciatic nerve of living mice (wild type; db/db and +/db in A10)
Description: Cytoplasmic calcium imaging (GCaMP2, multiphoton) in mSC of mouse sciatic nerve. It is filed as in vivo. The method, then: as §2, §3, §4
All time-lapse images were obtained with a multiphoton microscope Zeiss LSM 7 MP OPO. Mitochondria motility images were acquired by time-lapse recording of one image every five minutes during five hours at 920 nm. GCaMP2 and SypHer probe images were acquired by time-lapse recording of one image every fifteen minutes during five hours at 985 nm. Images were acquired to constant 1% of laser intensity to 100 msec of acquisition time with 512×512 resolution and 10 images of z-stack of 20 μm. Images were saved in Zeiss .czi format and processed using Image J program. For further details see Gonzalez et al., 201X^8
To characterize mitochondria physiology during the demyelination process we combined two in vivo methods. We used the nerve crush model to reliably induce demyelination in the mouse sciatic nerve and a viral approach^19 allowing the expression of different fluorescent probes selectively into mitochondria of myelinating Schwann cells (mSC) in mouse sciatic nerve. […]

T1 sequence (Q60932 14-296): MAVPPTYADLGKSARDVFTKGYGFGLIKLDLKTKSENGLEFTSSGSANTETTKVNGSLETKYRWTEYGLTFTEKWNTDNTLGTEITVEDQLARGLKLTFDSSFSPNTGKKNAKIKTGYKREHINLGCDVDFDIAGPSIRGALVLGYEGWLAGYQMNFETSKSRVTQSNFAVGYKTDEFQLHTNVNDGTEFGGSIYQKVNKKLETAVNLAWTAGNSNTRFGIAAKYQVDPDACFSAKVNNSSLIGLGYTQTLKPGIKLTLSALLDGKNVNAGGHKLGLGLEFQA

Take `CC(C)CCC[C@@H](C)[C@H]1CC[C@H]2[C@@H]3CCC4=C/C(=N\O)CC[C@]4(C)[C@H]3CC[C@]12C` [TRO19622, (NZ)—N-[(8S,9S,10R,13R,14S,17R)-10,13-dimethyl-17-[(2R)-6-methylheptan-2-yl]-1,2,6,7,8,9,11,12,14,15,16,17-dodecahydrocyclopenta[a]phenanthren-3-ylidene]hydroxylamine]: in the assay on diabetic (db/db) mice [1], the CMAP amplitude result was “without change” and the nerve conduction velocity result was “significantly increased to reach control mice velocity”. Moreover, in the assay with diabetic (db/db) mice [2], the Catwalk test parameters result is reported as “no change”; the “myelin thickness, nerve conduction velocity and neuromuscular defects (all these parameters)” value is “steadily improve”. Further, in the assay with diabetic (db/db) mice [2] (2 months after stopping the treatment), the “effects on MAPK activation, nerve structure and neuromuscular performance after stopping the treatment” value was “did not last”. Also, in the assay on diabetic (db/db) mice [2] (20 days after treatment), the grip strength result was “significant increase” and the rotarod latency entry is listed as “significant increase”. Also, in the assay with CMT1A rats, the CMAP amplitude entry is reported as “significant increase” and the nerve conduction velocity entry was “significant increase”. Besides, the nerve conduction velocity entry in the assay on CMT1A rats (listed as TRO16922) is on record as “largely improved”. Further, the “changes induced by nerve crush in mitochondrial motility not abrogated” value with mSC mitochondria came to 20%. In addition, the “part of the calcium appearing in the cytoplasm after nerve crush that is not abolished (non-mitochondrial origin)” value on VDAC1 (after nerve crush with VDAC1 silenced or blocked) was determined as 13%. Also, the “presence of cytoplasmic calcium in mSC after crush” value at VDAC1 (cytoplasmic GCaMP2, after nerve crush) is on record as “strong reduction”.
